Results taken from ChEMBL document CHEMBL2163255, “Zwitterions can be predominant in membrane penetration of drugs: experimental proof” (J Med Chem, 2012).

Legend:
Type in all cases: physicochemical
[1] = Octanol-water partition coefficient, log P of noncharged form of compound at 0.15 M ionic strength by stir flask method
[2] = Octanol-water distribution coefficient, log D of the compound at pH 0.82 by stir flask method
[3] = Octanol-water distribution coefficient, log D of the compound at pH 13.18 by stir flask method
[4] = Octanol-water partition coefficient, log P of zwitter ionic form of compound at 0.15 M ionic strength by stir flask method
[5] = Octanol-water distribution coefficient, log D of the compound at pH 4.96 by stir flask method
[6] = Octanol-water distribution coefficient, log D of the compound at pH 5.4 by stir flask method

Row | SMILES | logP [1] | logD [2] | logD [3] | logP [4] | logD [5] | logD [6]
1 | CCOC(=O)C1=C[C@]2(CC)CCCN3CCc4c(n1c1ccccc41)[C@H]32 | 4.75 | 0.9 |  |  |  | 
2 | CC[C@@]12C=C(C(=O)O)n3c4c(c5ccccc53)CCN(CCC1)[C@@H]42 | 3.98 | 0.13 | 0.21 | -0.22 | -0.14 | 
3 | CCOC(=O)C1=C[C@]2(CC)CCCN3CCc4c(n1c1ccccc41)[C@@H]32 [VINPOCETINE] | 4.45 | 0.94 |  |  |  | 
4 | CC[C@@]12C=C(C(=O)O)n3c4c(c5ccccc53)CCN(CCC1)[C@H]42 | 3.46 | -0.05 | -0.07 | -1.03 |  | -0.97
